Measurements from PMC2359919, “Molecular targeting of retinoic acid metabolism in neuroblastoma: the role of the CYP26 inhibitor R116010 in vitro and in vivo” (British Journal of Cancer, 2007).

Legend:
CYP26 = test system: CYP26; parameters: method as in Njar et al, 2006; conditions: ref Njar et al, 2006; cited from earlier work
[1] = Pharmacokinetic analysis of RA in an SH-SY5Y xenograft model (retinoid concentrations in plasma, liver, tumour by LC/MS); format: in vivo, CD-1 nude mice; conditions: for Plasma % of total retinoids at all time points: 0.5, 2 and 6 h; for % Total retinoids, tumour, 0.5 h / Tumour concentration, 0.5 h / % Total retinoids, tumour, 2 h / Tumour concentration, 2 h / % Total retinoids, tumour, 6 h / Tumour concentration, 6 h: SH-SY5Y tumour; for % Total retinoids, tumour, 0.5 h / Tumour concentration, 0.5 h / % Total retinoids, tumour, 2 h / Tumour concentration, 2 h / % Total retinoids, tumour, 6 h / Tumour concentration, 6 h / % Total retinoids, liver, 0.5 h / Liver concentration, 0.5 h / % Total retinoids, liver, 2 h / Liver concentration, 2 h / % Total retinoids, liver, 6 h / Liver concentration, 6 h / % Total retinoids, plasma, 0.5 h / Plasma concentration, 0.5 h / % Total retinoids, plasma, 2 h / Plasma concentration, 2 h / % Total retinoids, plasma, 6 h / Plasma concentration, 6 h: label = retinoid measured
Protocol: (§1) All in vivo experiments were approved by the relevant institutional animal welfare committees, and performed according to national law. Female athymic nude mice (CD-1 nu/nu, Charles River) used for antitumour studies were maintained and handled in isolators, under specific pathogen-free conditions, at 24°C with a 12 h light, 12 h dark cycle. Tumours were generated by implantation of SH-SY5Y cells subcutaneously (s.c.) into one flank of CD-1 nude mice (1 × 10^7 cells per animal).
(§2) Treatments began when the tumours were between 7 and 10 mm in length and breadth. Retinoids and R116010 were initially dissolved in DMSO before 10- or 20-fold dilutions in PBS, respectively. For pharmacokinetic studies, the animals were dosed with ATRA or 13cisRA (each 100 mg kg^−1) orally for 0.5, 2 and 6 h. For metabolism studies, animals were treated with R116010 orally at doses of 1.25 or 2.5 mg kg^−1 either immediately before the retinoid being studied, or up to three times (over 1–2 days) before dosing with the retinoid. At termination of experiments, animals were bled under terminal anaesthesia then killed by cervical dislocation. Plasma was immediately removed from the blood by centrifugation at 1000 g for 5 min and snap-frozen in liquid nitrogen in amber Eppendorfs. Tumour and liver samples were removed and snap-frozen, wrapped in foil, in liquid nitrogen.
(§3) Cell pellets obtained from retinoid incubations were re-suspended in 2 ml cell culture medium and disrupted by passing the samples several times through a syringe and hypodermic needle (25G × 1 inches, 0.5 mm × 25 mm; Terumo, Somerset, NJ, USA). Tumour and liver tissues were re-suspended in PBS and homogenised (T25 homogeniser, IKA Laboratories, Staufen, Germany). Retinoids were extracted as described previously ([Veal et al, 2002]; [Armstrong et al, 2005b]). Samples were reconstituted in 200 μl mobile phase A (n-hexane:dichloromethane:propan-2-ol, 400 : 1 : 0.27) and analysed by normal-phase HPLC as described previously ([Veal et al, 2002]). For LC/MS analysis, samples were reconstituted in 200 μl mobile phase A (50% acetonitrile, 50% (0.2%) acetic acid, v v^−1).
(§4) Resolution of retinoids was performed with a Luna C18(2) column (3 μm, 50 mm × 2 mm) using a Perkin Elmer LC (Beaconsfield, UK) system, consisting of a vacuum degasser, two series 200 pumps, a thermostatically controlled series 200 autosampler and a Waters 2487 UV absorbance detector. Retinoic isomers and metabolites were separated by gradient reversed-phase chromatography. An injection volume of 20 μl with a flow rate of 0.2 ml min^−1 was used with mobile phase A (50% acetonitrile, 50% (0.2%) acetic acid, v v^−1) and mobile phase B (acetonitrile, 0.1% acetic acid, v v^−1). Linear gradients were employed between the specified times as follows: 0, 100% A; 5 min, 100% A; 15 min, 100% B; 20 min, 100% B; 23 min, 100% A; 35 min, 100% A. An Applied Biosystems (Warrington, UK) API-2000 LC/MS/MS triple Q (quadrupole) mass spectrometer with electrospray ionisation source, controlled by Analyst software, was operated in single quadrupole negative mode for the detection of compounds.

RA metabolism = test: Effect of R116010 on retinoid concentrations (plasma, liver, tumour) in an SH-SY5Y xenograft model, LC/MS; format: in vivo, CD-1 nude mice; conditions: ATRA-treated mice (100 mg kg^−1) without or with R116010; 6 h
Protocol: as §1, §2, §3, §4

[2] = after 13cisRA 100 mg kg^−1 oral

SMILES: Clc1cccc(C(c2ccc3[nH]cnc3c2)n2ccnc2)c1 (stereo not drawn) [liarozole]
- Ability to inhibit CYP26 (CYP26): only moderate ability to inhibit CYP26

SMILES: CC1=C(/C=C/C(C)=C/C=C/C(C)=C/C(=O)O)C(C)(C)CCC1=O [AT-4-oxoRA, all-trans-4-oxo-RA]
- Plasma % of total retinoids at all time points ([1]; after 13cisRA 100 mg kg^−1): < 10%
- % Total retinoids, tumour, 0.5 h [1, 2]: <1%
- Tumour concentration, 0.5 h [1, 2]: 0.02 ± 0.0 µg/g
- % Total retinoids, tumour, 2 h [1, 2]: 3%
- Tumour concentration, 2 h [1, 2]: 0.09 ± 0.04 µg/g
- % Total retinoids, tumour, 6 h [1, 2]: 16%
- Tumour concentration, 6 h [1, 2]: 0.09 ± 0.02 µg/g
- % Total retinoids, liver, 0.5 h [1, 2]: 5%
- Liver concentration, 0.5 h [1, 2]: 0.26 ± 0.10 µg/g
- % Total retinoids, liver, 2 h [1, 2]: 8%
- Liver concentration, 2 h [1, 2]: 0.30 ± 0.09 µg/g
- % Total retinoids, liver, 6 h [1, 2]: 12%
- Liver concentration, 6 h [1, 2]: 0.67 ± 0.25 µg/g
- % Total retinoids, plasma, 0.5 h [1, 2]: 0%
- Plasma concentration, 0.5 h [1, 2]: 0 nM
- % Total retinoids, plasma, 2 h [1, 2]: <1%
- Plasma concentration, 2 h [1, 2]: 130 ± 40 nM
- % Total retinoids, plasma, 6 h [1, 2]: 0%
- Plasma concentration, 6 h [1, 2]: 0 nM
- % Total retinoids, tumour, 0.5 h ([1]; after ATRA 100 mg kg^−1 oral): 8%
- Tumour concentration, 0.5 h ([1]; after ATRA 100 mg kg^−1 oral): 0.21 ± 0.09 µg/g
- % Total retinoids, tumour, 2 h ([1]; after ATRA 100 mg kg^−1 oral): 2%
- Tumour concentration, 2 h ([1]; after ATRA 100 mg kg^−1 oral): 0.24 ± 0.06 µg/g
- % Total retinoids, tumour, 6 h ([1]; after ATRA 100 mg kg^−1 oral): 17%
- Tumour concentration, 6 h ([1]; after ATRA 100 mg kg^−1 oral): 0.79 ± 0.38 µg/g
- % Total retinoids, liver, 0.5 h ([1]; after ATRA 100 mg kg^−1 oral): 11%
- Liver concentration, 0.5 h ([1]; after ATRA 100 mg kg^−1 oral): 0.44 ± 0.12 µg/g
- % Total retinoids, liver, 2 h ([1]; after ATRA 100 mg kg^−1 oral): 13%
- Liver concentration, 2 h ([1]; after ATRA 100 mg kg^−1 oral): 1.07 ± 0.05 µg/g
- % Total retinoids, liver, 6 h ([1]; after ATRA 100 mg kg^−1 oral): 45%
- Liver concentration, 6 h ([1]; after ATRA 100 mg kg^−1 oral): 2.39 ± 0.72 µg/g
- Liver concentration, 6 h ([1]; after ATRA 100 mg kg^−1 oral, listed as AT-4-oxo-RA): 2.39 µg/g
- % Total retinoids, plasma, 0.5 h ([1]; after ATRA 100 mg kg^−1 oral): 4%
- Plasma concentration, 0.5 h ([1]; after ATRA 100 mg kg^−1 oral): 600 ± 400 nM
- % Total retinoids, plasma, 2 h ([1]; after ATRA 100 mg kg^−1 oral): 6%
- Plasma concentration, 2 h ([1]; after ATRA 100 mg kg^−1 oral): 1700 ± 300 nM
- % Total retinoids, plasma, 6 h ([1]; after ATRA 100 mg kg^−1 oral): 22%
- Plasma concentration, 6 h ([1]; after ATRA 100 mg kg^−1 oral): 4000 ± 2400 nM

SMILES: CC1=C(/C=C/C(C)=C/C=C/C(C)=C\C(=O)O)C(C)(C)CCC1=O [13cis-4-oxoRA, 13-cis-4-oxo-RA]
- % Total retinoids, tumour, 0.5 h [1, 2]: 3%
- Tumour concentration, 0.5 h [1, 2]: 0.06 ± 0.02 µg/g
- % Total retinoids, tumour, 2 h [1, 2]: 2%
- Tumour concentration, 2 h [1, 2]: 0.04 ± 0.0 µg/g
- % Total retinoids, tumour, 6 h [1, 2]: 19%
- Tumour concentration, 6 h [1, 2]: 0.11 ± 0.05 µg/g
- % Total retinoids, liver, 0.5 h [1, 2]: 18%
- Liver concentration, 0.5 h [1, 2]: 0.89 ± 0.22 µg/g
- % Total retinoids, liver, 2 h [1, 2]: 33%
- Liver concentration, 2 h [1, 2]: 1.33 ± 0.08 µg/g
- % Total retinoids, liver, 6 h [1, 2]: 69%
- Liver concentration, 6 h [1, 2]: 3.79 ± 0.99 µg/g
- Liver concentration, 6 h ([1]; after 13cisRA 100 mg kg^−1 oral, listed as 13cis-4-oxo-RA): 3.79 µg/g
- % Total retinoids, plasma, 0.5 h [1, 2]: 2%
- Plasma concentration, 0.5 h [1, 2]: 270 ± 110 nM
- % Total retinoids, plasma, 2 h [1, 2]: 3%
- Plasma concentration, 2 h [1, 2]: 630 ± 100 nM
- % Total retinoids, plasma, 6 h [1, 2]: 20%
- Plasma concentration, 6 h [1, 2]: 1220 ± 240 nM
- Plasma % of total retinoids at all time points ([1]; after ATRA 100 mg kg^−1): < 10%
- % Total retinoids, tumour, 0.5 h ([1]; after ATRA 100 mg kg^−1 oral): 0%
- Tumour concentration, 0.5 h ([1]; after ATRA 100 mg kg^−1 oral): 0 µg/g
- % Total retinoids, tumour, 2 h ([1]; after ATRA 100 mg kg^−1 oral): 0%
- Tumour concentration, 2 h ([1]; after ATRA 100 mg kg^−1 oral): 0 µg/g
- % Total retinoids, tumour, 6 h ([1]; after ATRA 100 mg kg^−1 oral): 0%
- Tumour concentration, 6 h ([1]; after ATRA 100 mg kg^−1 oral): 0 µg/g
- % Total retinoids, liver, 0.5 h ([1]; after ATRA 100 mg kg^−1 oral): 1%
- Liver concentration, 0.5 h ([1]; after ATRA 100 mg kg^−1 oral): 0.06 ± 0.03 µg/g
- % Total retinoids, liver, 2 h ([1]; after ATRA 100 mg kg^−1 oral): 1%
- Liver concentration, 2 h ([1]; after ATRA 100 mg kg^−1 oral): 0.09 ± 0.02 µg/g
- % Total retinoids, liver, 6 h ([1]; after ATRA 100 mg kg^−1 oral): 4%
- Liver concentration, 6 h ([1]; after ATRA 100 mg kg^−1 oral): 0.22 ± 0.09 µg/g
- % Total retinoids, plasma, 0.5 h ([1]; after ATRA 100 mg kg^−1 oral): <1%
- Plasma concentration, 0.5 h ([1]; after ATRA 100 mg kg^−1 oral): 30 ± 10 nM
- % Total retinoids, plasma, 2 h ([1]; after ATRA 100 mg kg^−1 oral): <1%
- Plasma concentration, 2 h ([1]; after ATRA 100 mg kg^−1 oral): 20 ± 10 nM
- % Total retinoids, plasma, 6 h ([1]; after ATRA 100 mg kg^−1 oral): <1%
- Plasma concentration, 6 h ([1]; after ATRA 100 mg kg^−1 oral): 50 ± 30 nM
- Plasma 13cis-4-oxo-RA (RA metabolism): not detectable
